The source made the active and inactive calls.
Tests used:
[1] = biological target: T1, Histone-lysine N-methyltransferase NSD2 (Homo sapiens, UniProt O96028); format: biochemical
T1 sequence (O96028 whole entry): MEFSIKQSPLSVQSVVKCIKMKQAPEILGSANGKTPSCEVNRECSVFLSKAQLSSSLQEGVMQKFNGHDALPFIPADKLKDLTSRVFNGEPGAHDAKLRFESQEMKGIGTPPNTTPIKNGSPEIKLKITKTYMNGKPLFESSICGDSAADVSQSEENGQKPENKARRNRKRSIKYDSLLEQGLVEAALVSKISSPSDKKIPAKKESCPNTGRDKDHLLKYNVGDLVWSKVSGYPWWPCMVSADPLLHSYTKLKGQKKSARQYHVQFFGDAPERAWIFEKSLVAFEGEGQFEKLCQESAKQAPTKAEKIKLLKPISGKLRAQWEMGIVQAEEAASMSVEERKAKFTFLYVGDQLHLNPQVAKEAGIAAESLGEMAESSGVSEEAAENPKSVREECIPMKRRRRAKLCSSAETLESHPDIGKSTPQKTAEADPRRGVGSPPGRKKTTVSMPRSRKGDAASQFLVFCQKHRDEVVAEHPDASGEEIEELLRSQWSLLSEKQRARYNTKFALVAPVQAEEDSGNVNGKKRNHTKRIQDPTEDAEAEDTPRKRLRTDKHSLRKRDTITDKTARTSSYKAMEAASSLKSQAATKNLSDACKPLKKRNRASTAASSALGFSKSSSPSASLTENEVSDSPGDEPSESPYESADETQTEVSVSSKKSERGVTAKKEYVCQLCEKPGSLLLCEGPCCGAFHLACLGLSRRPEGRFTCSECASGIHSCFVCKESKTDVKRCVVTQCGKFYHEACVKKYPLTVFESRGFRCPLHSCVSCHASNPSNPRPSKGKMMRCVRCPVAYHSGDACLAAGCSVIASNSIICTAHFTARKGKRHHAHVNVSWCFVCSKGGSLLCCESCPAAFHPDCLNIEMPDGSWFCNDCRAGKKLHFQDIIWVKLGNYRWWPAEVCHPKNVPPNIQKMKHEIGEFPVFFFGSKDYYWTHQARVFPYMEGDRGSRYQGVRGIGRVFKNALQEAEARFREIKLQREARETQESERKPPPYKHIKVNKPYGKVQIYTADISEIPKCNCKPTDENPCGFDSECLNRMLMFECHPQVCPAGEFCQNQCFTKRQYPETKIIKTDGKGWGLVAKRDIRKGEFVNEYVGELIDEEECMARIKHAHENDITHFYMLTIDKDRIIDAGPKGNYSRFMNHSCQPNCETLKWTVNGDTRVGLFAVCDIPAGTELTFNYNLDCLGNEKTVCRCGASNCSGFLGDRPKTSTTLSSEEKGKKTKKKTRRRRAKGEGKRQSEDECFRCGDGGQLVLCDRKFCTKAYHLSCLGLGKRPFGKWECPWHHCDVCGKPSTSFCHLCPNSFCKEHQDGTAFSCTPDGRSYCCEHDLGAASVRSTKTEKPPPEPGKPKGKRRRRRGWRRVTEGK

[2] = biological target: T2, Replicative DNA helicase DnaB (Mycobacterium tuberculosis, UniProt P9WMR3); experiment: DnaB intein splicing inhibitors, dose response, biochemical, cell-free fluorescence (AID 449749); format: functional
T2 sequence (P9WMR3 whole entry): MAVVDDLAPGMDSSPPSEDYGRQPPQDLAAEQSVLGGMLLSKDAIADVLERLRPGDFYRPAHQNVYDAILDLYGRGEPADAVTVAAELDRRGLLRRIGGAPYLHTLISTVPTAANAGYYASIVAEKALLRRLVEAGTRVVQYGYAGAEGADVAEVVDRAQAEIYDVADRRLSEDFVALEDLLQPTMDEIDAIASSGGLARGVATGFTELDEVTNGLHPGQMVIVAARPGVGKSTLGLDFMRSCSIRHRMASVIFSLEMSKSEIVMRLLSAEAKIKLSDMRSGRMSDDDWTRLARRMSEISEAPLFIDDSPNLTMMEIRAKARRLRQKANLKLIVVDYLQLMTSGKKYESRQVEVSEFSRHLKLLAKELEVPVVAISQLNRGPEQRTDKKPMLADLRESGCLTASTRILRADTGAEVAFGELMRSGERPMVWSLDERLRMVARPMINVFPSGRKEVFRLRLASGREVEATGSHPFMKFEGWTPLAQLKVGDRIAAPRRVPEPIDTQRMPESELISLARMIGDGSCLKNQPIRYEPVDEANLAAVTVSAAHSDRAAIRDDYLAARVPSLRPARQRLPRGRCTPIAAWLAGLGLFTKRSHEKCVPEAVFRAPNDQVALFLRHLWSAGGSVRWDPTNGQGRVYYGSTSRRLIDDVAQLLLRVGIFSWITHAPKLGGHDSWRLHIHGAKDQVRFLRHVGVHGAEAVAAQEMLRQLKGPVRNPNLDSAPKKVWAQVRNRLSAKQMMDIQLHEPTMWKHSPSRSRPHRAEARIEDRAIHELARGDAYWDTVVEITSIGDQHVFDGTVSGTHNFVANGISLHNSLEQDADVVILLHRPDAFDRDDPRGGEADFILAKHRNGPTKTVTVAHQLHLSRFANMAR

Caspase-3 = biological target: T3, Caspase-3 (Homo sapiens, UniProt P42574); format: functional;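 note: Dose-response selectivity test against caspase-3 for candidate inhibitors of sentrin-specific proteases (SENPs)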
T3 sequence (P42574 whole entry): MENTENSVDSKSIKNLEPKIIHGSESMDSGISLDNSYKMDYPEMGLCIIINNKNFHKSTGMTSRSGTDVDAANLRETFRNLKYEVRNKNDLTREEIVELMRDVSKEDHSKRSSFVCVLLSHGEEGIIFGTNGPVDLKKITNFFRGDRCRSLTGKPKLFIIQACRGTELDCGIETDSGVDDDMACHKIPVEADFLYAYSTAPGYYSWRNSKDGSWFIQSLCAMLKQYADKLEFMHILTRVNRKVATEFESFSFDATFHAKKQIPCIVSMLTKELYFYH

[3] = biological target: T4, Sentrin-specific protease 8 (Homo sapiens, UniProt Q96LD8); format: functional;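 note: luminescence read-out of SENP8 inhibition, dose-response confirmation following an ultra-high-throughput screen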
T4 sequence (Q96LD8 whole entry): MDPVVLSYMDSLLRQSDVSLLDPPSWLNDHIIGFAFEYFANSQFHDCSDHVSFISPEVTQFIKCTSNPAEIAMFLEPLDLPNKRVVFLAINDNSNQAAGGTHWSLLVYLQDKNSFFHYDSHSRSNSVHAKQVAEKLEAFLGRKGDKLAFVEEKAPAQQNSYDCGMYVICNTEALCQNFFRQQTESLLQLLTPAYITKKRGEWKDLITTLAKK

Row | Structure (SMILES) | AC50 [1] | AC50 [2] | IC50 (Caspase-3) | IC50 [3]
1 | COc1cc(C(=O)c2nccc3cc(OC)c(OC)cc23)c([N+](=O)[O-])cc1OC | > 20 µM (inactive) | 0.273 µM (active) | 31.9 µM (active) | 4.97 µM (active)
2 | N#Cc1c(O)nc(SCC(=O)N2c3ccccc3Sc3ccccc32)nc1-c1ccccc1 |  | 2.41 µM (active) |  | 
3 | c1ccc2c(Nc3nnc(-c4ccncc4)s3)cccc2c1 |  |  | 18.5 µM (active) | > 100 µM (inactive)
4 | N=C1S/C(=C\c2ccc(-c3ccccc3C(=O)O)o2)C(=O)N1c1ccc2c(c1)OCO2 | 3.28 µM (active) |  |  | 

Source: ChEMBL document CHEMBL1201862, “PubChem BioAssay data set” (2004)
